How the values were obtained:
Assay type in all cases: in vivo
[1] = test system: barnyardgrass (Echinochloa crus-galli); assay: Test G Pre-Emergence Protocol; conditions: Echinochloa crus-galli, pre-emergence, 312 h, evaluated after 13 days; for pest or weed control at 15.625 g/ha: 15.625 g ai/ha, read-out: Barnyard grass damage rating (100=total damage to plant; 0=no damage to plant); for pest or weed control at 62.5 g/ha: 62.5 g ai/ha, 100=total damage to plant, 0=no damage to plant, read-out: plant damage rating, Barnyardgrass; for pest or weed control at 250 g/ha: 250 g ai/ha, read-out: Barnyardgrass damage rating (100=total damage to plant; 0=no damage to plant)
Outline: (§1)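 Scores are visual damage ratings from 0 (no damage) to 100 (total plant kill), taken 13 days after treatment. Compound was sprayed one day post-sowing at 15.625, 62.5 or 250 g/ha in 50:50 acetone/water with 0.5% Tween 20.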

corn (Zea mays) [2] = assay: Test G Pre-Emergence Protocol; conditions: Zea mays, pre-emergence, 312 h, evaluated after 13 days; for plant injury at 15.625 g/ha: 15.625 g ai/ha; for plant injury at 15.625 g/ha / plant injury at 250 g/ha: read-out: Corn damage rating (100=total damage to plant; 0=no damage to plant); for plant injury at 62.5 g/ha: 62.5 g ai/ha, 100=total damage to plant, 0=no damage to plant, read-out: plant damage rating, Corn; for plant injury at 250 g/ha: 250 g ai/ha
Outline: as §1

[3] = test system: ivy-leaved morning glory (Ipomoea hederacea); assay: Test G Pre-Emergence Protocol; conditions: Ipomoea, pre-emergence, 312 h, evaluated after 13 days; for pest or weed control at 15.625 g/ha: 15.625 g ai/ha, read-out: Morning-glory, Ivy-leaved damage rating (100=total damage to plant; 0=no damage to plant); for pest or weed control at 62.5 g/ha: 62.5 g ai/ha, 100=total damage to plant, 0=no damage to plant, read-out: plant damage rating, Morningglory, Ivy-leaved; for pest or weed control at 250 g/ha: 250 g ai/ha, read-out: Morningglory, Ivy-leaved damage rating (100=total damage to plant; 0=no damage to plant)
Outline: as §1

[4] = test system: redroot pigweed (Amaranthus retroflexus); assay: Test G Pre-Emergence Protocol; conditions: Amaranthus retroflexus, pre-emergence, 312 h, evaluated after 13 days; for pest or weed control at 15.625 g/ha: 15.625 g ai/ha; for pest or weed control at 15.625 g/ha / pest or weed control at 250 g/ha: read-out: Pigweed, Redroot damage rating (100=total damage to plant; 0=no damage to plant); for pest or weed control at 62.5 g/ha: 62.5 g ai/ha, 100=total damage to plant, 0=no damage to plant, read-out: plant damage rating, Pigweed, Redroot; for pest or weed control at 250 g/ha: 250 g ai/ha
Outline: as §1

[5] = test system: giant foxtail (Setaria faberi); assay: Test G Pre-Emergence Protocol; conditions: Setaria faberi, pre-emergence, 312 h, evaluated after 13 days; for pest or weed control at 15.625 g/ha: 15.625 g ai/ha; for pest or weed control at 15.625 g/ha / pest or weed control at 250 g/ha: read-out: Foxtail, Giant damage rating (100=total damage to plant; 0=no damage to plant); for pest or weed control at 62.5 g/ha: 62.5 g ai/ha, 100=total damage to plant, 0=no damage to plant, read-out: plant damage rating, Foxtail, Giant; for pest or weed control at 250 g/ha: 250 g ai/ha
Outline: as §1

[6] = test system: velvetleaf (Abutilon theophrasti); assay: Test G Pre-Emergence Protocol; conditions: Abutilon theophrasti, pre-emergence, 312 h, evaluated after 13 days; for pest or weed control at 15.625 g/ha: 15.625 g ai/ha; for pest or weed control at 15.625 g/ha / pest or weed control at 250 g/ha: read-out: Velvetleaf damage rating (100=total damage to plant; 0=no damage to plant); for pest or weed control at 62.5 g/ha: 62.5 g ai/ha, 100=total damage to plant, 0=no damage to plant, read-out: plant damage rating, Velvetleaf; for pest or weed control at 250 g/ha: 250 g ai/ha
Outline: as §1

[7] = test system: barnyardgrass (Echinochloa crus-galli); assay: Test G Post-Emergence Protocol; conditions: Echinochloa crus-galli, post-emergence, 312 h; for pest or weed control at 15.625 g/ha: 15.625 g ai/ha, evaluated after 13 days (100=total damage to plant; 0=no damage to plant), read-out: Barnyardgrass damage rating; for pest or weed control at 62.5 g/ha: 62.5 g ai/ha, read-out: Barnyardgrass damage rating (100=total damage to plant; 0=no damage to plant); for pest or weed control at 62.5 g/ha / pest or weed control at 250 g/ha: evaluated after 13 days; for pest or weed control at 250 g/ha: 250 g ai/ha, read-out: damage to plant, Barnyardgrass (100=total damage to plant; 0=no damage to plant)
Outline: (§2)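 Eight days post-sowing, plants received a spray of test compound (acetone/water 50:50, 0.5% Tween 20) at 15.625, 62.5 or 250 g/ha. Glasshouse regime thereafter: 24/16 °C, 14 h light, 65% humidity. Assessment after 13 days on a 0–100 damage scale.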

corn (Zea mays) [8] = assay: Test G Post-Emergence Protocol; conditions: Zea mays, post-emergence, 312 h; for plant injury at 15.625 g/ha: 15.625 g ai/ha, evaluated after 13 days (100=total damage to plant; 0=no damage to plant), read-out: Corn damage rating; for plant injury at 62.5 g/ha: 62.5 g ai/ha, read-out: Corn damage rating (100=total damage to plant; 0=no damage to plant); for plant injury at 62.5 g/ha / plant injury at 250 g/ha: evaluated after 13 days; for plant injury at 250 g/ha: 250 g ai/ha, read-out: damage to plant, Corn (100=total damage to plant; 0=no damage to plant)
Outline: as §2

[9] = test system: ivy-leaved morning glory (Ipomoea hederacea); assay: Test G Post-Emergence Protocol; conditions: Ipomoea, post-emergence, 312 h; for pest or weed control at 15.625 g/ha: 15.625 g ai/ha, evaluated after 13 days (100=total damage to plant; 0=no damage to plant), read-out: Morningglory, Ivy-leaved damage rating; for pest or weed control at 62.5 g/ha: 62.5 g ai/ha, read-out: Morningglory, Ivy-leaved damage rating (100=total damage to plant; 0=no damage to plant); for pest or weed control at 62.5 g/ha / pest or weed control at 250 g/ha: evaluated after 13 days; for pest or weed control at 250 g/ha: 250 g ai/ha, read-out: damage to plant, Morningglory, Ivy-leaved (100=total damage to plant; 0=no damage to plant)
Outline: as §2

[10] = test system: redroot pigweed (Amaranthus retroflexus); assay: Test G Post-Emergence Protocol; conditions: Amaranthus retroflexus, post-emergence, 312 h; for pest or weed control at 15.625 g/ha: 15.625 g ai/ha, evaluated after 13 days (100=total damage to plant; 0=no damage to plant), read-out: Pigweed, Redroot damage rating; for pest or weed control at 62.5 g/ha: 62.5 g ai/ha, read-out: Pigweed, Redroot damage rating (100=total damage to plant; 0=no damage to plant); for pest or weed control at 62.5 g/ha / pest or weed control at 250 g/ha: evaluated after 13 days; for pest or weed control at 250 g/ha: 250 g ai/ha, read-out: damage to plant, Pigweed, Redroot (100=total damage to plant; 0=no damage to plant)
Outline: as §2

[11] = test system: giant foxtail (Setaria faberi); assay: Test G Post-Emergence Protocol; conditions: Setaria faberi, post-emergence, 312 h; for pest or weed control at 15.625 g/ha: 15.625 g ai/ha, evaluated after 13 days (100=total damage to plant; 0=no damage to plant), read-out: Foxtail, Giant damage rating; for pest or weed control at 62.5 g/ha: 62.5 g ai/ha, read-out: Foxtail, Giant damage rating (100=total damage to plant; 0=no damage to plant); for pest or weed control at 62.5 g/ha / pest or weed control at 250 g/ha: evaluated after 13 days; for pest or weed control at 250 g/ha: 250 g ai/ha, read-out: damage to plant, Foxtail, Giant (100=total damage to plant; 0=no damage to plant)
Outline: as §2

[12] = test system: velvetleaf (Abutilon theophrasti); assay: Test G Post-Emergence Protocol; conditions: Abutilon theophrasti, post-emergence, 312 h; for pest or weed control at 15.625 g/ha: 15.625 g ai/ha, evaluated after 13 days (100=total damage to plant; 0=no damage to plant), read-out: Velvetleaf damage rating; for pest or weed control at 62.5 g/ha: 62.5 g ai/ha, read-out: Velvetleaf damage rating (100=total damage to plant; 0=no damage to plant); for pest or weed control at 62.5 g/ha / pest or weed control at 250 g/ha: evaluated after 13 days; for pest or weed control at 250 g/ha: 250 g ai/ha, read-out: damage to plant, Velvetleaf (100=total damage to plant; 0=no damage to plant)
Outline: as §2

Compound | pest or weed control at 15.625 g/ha [1] [%] | pest or weed control at 62.5 g/ha [1] [%] | pest or weed control at 250 g/ha [1] [%] | plant injury at 15.625 g/ha (corn (Zea mays) [2]) [%] | plant injury at 62.5 g/ha (corn (Zea mays) [2]) [%] | plant injury at 250 g/ha (corn (Zea mays) [2]) [%] | pest or weed control at 15.625 g/ha [3] [%] | pest or weed control at 62.5 g/ha [3] [%] | pest or weed control at 250 g/ha [3] [%] | pest or weed control at 15.625 g/ha [4] [%] | pest or weed control at 62.5 g/ha [4] [%] | pest or weed control at 250 g/ha [4] [%] | pest or weed control at 15.625 g/ha [5] [%] | pest or weed control at 62.5 g/ha [5] [%] | pest or weed control at 250 g/ha [5] [%] | pest or weed control at 15.625 g/ha [6] [%] | pest or weed control at 62.5 g/ha [6] [%] | pest or weed control at 250 g/ha [6] [%] | pest or weed control at 15.625 g/ha [7] [%] | pest or weed control at 62.5 g/ha [7] [%] | further results
CN1C[C@@H](c2ccc(C(F)(F)F)cc2)[C@H](C(=O)Nc2nccc(=O)[nH]2)C1=O (racemic) [Compound 1622] | 0 | 0 | 0 | 0 | 0 | 0 | 0 | 0 | 0 | 0 | 0 | 0 | 0 | 0 | 0 | 0 | 0 | 0 | 0 | 0 | pest or weed control at 250 g/ha [7]: 0%; plant injury at 15.625 g/ha (corn (Zea mays) [8]): 0%; plant injury at 62.5 g/ha (corn (Zea mays) [8]): 0%; plant injury at 250 g/ha (corn (Zea mays) [8]): 0%; pest or weed control at 15.625 g/ha [9]: 0%; pest or weed control at 62.5 g/ha [9]: 0%; pest or weed control at 250 g/ha [9]: 0%; pest or weed control at 15.625 g/ha [10]: 0%; pest or weed control at 62.5 g/ha [10]: 0%; pest or weed control at 250 g/ha [10]: 0%; pest or weed control at 15.625 g/ha [11]: 0%; pest or weed control at 62.5 g/ha [11]: 0%; pest or weed control at 250 g/ha [11]: 0%; pest or weed control at 15.625 g/ha [12]: 0%; pest or weed control at 62.5 g/ha [12]: 0%; pest or weed control at 250 g/ha [12]: 0%
C=CCc1c(Cl)cccc1NC(=O)[C@H]1C(=O)N(C)C[C@@H]1c1ccc(C(F)(F)F)cc1 (racemic) [Compound 1440] | 0 | 10 | 40 | 0 | 0 | 0 | 0 | 0 | 0 | 0 | 0 | 0 | 0 | 50 | 80 | 0 | 0 | 0 | 0 | 0 | pest or weed control at 250 g/ha [7]: 10%; plant injury at 15.625 g/ha (corn (Zea mays) [8]): 0%; plant injury at 62.5 g/ha (corn (Zea mays) [8]): 10%; plant injury at 250 g/ha (corn (Zea mays) [8]): 20%; pest or weed control at 15.625 g/ha [9]: 0%; pest or weed control at 62.5 g/ha [9]: 0%; pest or weed control at 250 g/ha [9]: 10%; pest or weed control at 15.625 g/ha [10]: 0%; pest or weed control at 62.5 g/ha [10]: 10%; pest or weed control at 250 g/ha [10]: 20%; pest or weed control at 15.625 g/ha [11]: 0%; pest or weed control at 62.5 g/ha [11]: 20%; pest or weed control at 250 g/ha [11]: 60%; pest or weed control at 15.625 g/ha [12]: 0%; pest or weed control at 62.5 g/ha [12]: 0%; pest or weed control at 250 g/ha [12]: 0%
CN1C[C@@H](c2ccc(C(F)(F)F)cc2)[C@H](C(=O)Nc2cc(C(F)(F)F)no2)C1=O (racemic) [Compound 1511] | 0 | 0 | 0 | 0 | 0 | 0 | 0 | 0 | 0 | 0 | 0 | 0 | 0 | 0 | 0 | 0 | 0 | 0 | 0 | 0 | pest or weed control at 250 g/ha [7]: 0%; plant injury at 15.625 g/ha (corn (Zea mays) [8]): 0%; plant injury at 62.5 g/ha (corn (Zea mays) [8]): 0%; plant injury at 250 g/ha (corn (Zea mays) [8]): 0%; pest or weed control at 15.625 g/ha [9]: 0%; pest or weed control at 62.5 g/ha [9]: 0%; pest or weed control at 250 g/ha [9]: 0%; pest or weed control at 15.625 g/ha [10]: 0%; pest or weed control at 62.5 g/ha [10]: 0%; pest or weed control at 250 g/ha [10]: 0%; pest or weed control at 15.625 g/ha [11]: 0%; pest or weed control at 62.5 g/ha [11]: 0%; pest or weed control at 250 g/ha [11]: 0%; pest or weed control at 15.625 g/ha [12]: 0%; pest or weed control at 62.5 g/ha [12]: 0%; pest or weed control at 250 g/ha [12]: 0%

— US12077503B2, “Substituted cyclic amides and their use as herbicides” (FMC CORPORATION, priority 2015, dated 2024)
